The record followed here is publication PMC3729231 (Bioorganic & medicinal chemistry letters, 2012).

The structures appear in SMILES notation.

One series deals with 29 other GPCRs. The series can be described thus: PDSP GPCR binding assay panel: other GPCRs. The settings on record: listed as ML221.
The next series deals with T1, APJ (Homo sapiens, UniProt P35414).
T1 sequence (P35414 1-380): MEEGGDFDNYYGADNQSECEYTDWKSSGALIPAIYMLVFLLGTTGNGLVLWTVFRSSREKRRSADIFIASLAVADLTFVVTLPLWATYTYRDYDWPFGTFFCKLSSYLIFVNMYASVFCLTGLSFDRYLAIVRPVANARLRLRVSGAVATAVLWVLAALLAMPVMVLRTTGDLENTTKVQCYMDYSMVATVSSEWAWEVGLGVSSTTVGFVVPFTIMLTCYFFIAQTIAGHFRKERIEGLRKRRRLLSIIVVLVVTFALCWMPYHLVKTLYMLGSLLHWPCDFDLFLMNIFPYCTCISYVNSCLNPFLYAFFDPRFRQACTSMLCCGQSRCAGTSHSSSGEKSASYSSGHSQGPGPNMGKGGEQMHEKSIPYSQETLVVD
The experiment in a line: cell-based.

The conditions of series [1]: aqueous acetonitrile; data not shown.

In the case of `O=C(Oc1coc(CSc2ncccn2)cc1=O)c1ccc([N+](=O)[O-])cc1` [Entry 6, 4-oxo-6-((pyrimidin-2-ylthio)methyl)-4H-pyran-3-yl 4-nitrobenzoate], the “binding activity against other GPCRs (in words)” value in the series with 29 other GPCRs was “no significant binding activity”.
As for `Cc1ccnc(SCc2cc(=O)c(NC(=O)c3ccc([N+](=O)[O-])cc3)co2)n1` [Entry 67], the IC50 (as a rule, the point on the concentration scale where inhibition reaches its midpoint) at APJ was found to be 12.8 ± 0.35 µM.
On to `Cc1ccnc(SCc2cc(=O)c(OC(=O)c3ccc(Cl)c([N+](=O)[O-])c3)co2)n1` [Entry 29], for which the “hydrolytic stability of the ester bond (in words)” value in series [1] is recorded as “readily hydrolyzed”.
